The record followed here is PubChem BioAssay (NCI).

Holding throughout (experiment): DTP human tumour cell line panel, 48 h
The subject of assay [1] is MDA-MB-435.
Assay [2] has as its system SK-MEL-28 melanoma.
Assay [3] has as its system SK-OV-3 ovarian.
In assay [4] the test system is U251 CNS.
The test system of assay [5] is OVCAR-5 ovarian.
For assay [6], the system named is ACHN renal.
Assay [7] deals with OVCAR-3 ovarian.
The test system of assay [8] is NCI/ADR-RES ovarian.
For assay [9], the system named is UO-31 renal.
For assay [10], the system named is UACC-62 melanoma.

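In this assay, cells in 96-well plates receive the compound at five concentrations for 48 hours. Endpoints are linearly interpolated between the surrounding concentrations. GI50 marks 50% less growth. TGI denotes the concentration required for complete inhibition of growth.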

For `Cc1cc(=O)oc2cc(OCCn3c(C)nn(-c4ccc(Cl)cc4)c3=O)ccc12`, the GI50 in [1] is 0.269 µM; in assay [2], 3.13 µM; in [3] it was 3.36 µM; in assay [4], 4.18 µM; in assay [5], 21.9 µM; in [6], 5.59 µM. Also, the GI50 in [7] was 3.25 µM; in [8], 1.64 µM; in assay [9] it was 12.7 µM; in [10], 1.99 µM. The TGI in assay [1] is 0.837 µM; in assay [2], over 100 µM; in assay [3], 48.8 µM; in [4], 72.3 µM; in assay [5] it was over 100 µM; in assay [6], over 100 µM. In addition, the TGI in assay [7] is 15.2 µM; in [8] it was over 100 µM; in assay [9], over 100 µM; in assay [10] it was over 100 µM.

Take `Nc1ccn([C@@H]2C(F)=C(CO)[C@@H](O)[C@H]2O)c(=O)n1`: the GI50 in [1] was 0.846 µM; in assay [2] it was 6.91 µM; in [3] it was 4.95 µM; in [4], 2.78 µM; in assay [5], 12.2 µM; in assay [6], 0.755 µM. The GI50 was 4.17 µM in [7], 0.578 µM in assay [8], 0.462 µM in assay [9] and 3.78 µM in assay [10]. The TGI in assay [1], in assay [2], in assay [3], in [4], in assay [5] and in assay [6] was over 100 µM throughout. Further, the TGI in [7], in assay [8], in [9] and in assay [10] was over 100 µM throughout.

Turning to `O=C(Cc1ccc(/C=C/C(=O)c2ncc[nH]2)cc1)Nc1ccc(C(F)(F)F)cc1`, the GI50 in assay [1] is 2.87 µM; in assay [2], 5.32 µM; in assay [3], 7.66 µM; in assay [4], 1.22 µM; in assay [5] it was 4.89 µM; in assay [6] it was 6.33 µM. For the same compound, the GI50 in [7] is 1.09 µM; in assay [8], 8.96 µM; in [9] it was 2.43 µM; in assay [10], 4.47 µM. In addition, the TGI turned out to be 11.6 µM in [1]; 11.1 µM in assay [2]; 26.3 µM in [3]; 4.11 µM in assay [4]; 10.2 µM in [5]; 17.8 µM in [6]. Further, the TGI in assay [7] is 3.35 µM; in assay [8], over 33.3 µM; in assay [9], 6.74 µM; in [10], 9.44 µM.

For the compound `O=C(Nc1cc(S(=O)(=O)c2ccc(Cl)cc2)ccc1Cl)c1cc(I)cc(I)c1O`, the GI50 was 17.4 µM in assay [1]; 9.38 µM in assay [2]; 17.2 µM in [3]; 15.3 µM in [4]; 18.3 µM in [5]; 17.1 µM in assay [6]. Also, the GI50 in assay [7] was 17 µM; in assay [8], 18.7 µM; in assay [9], 20.9 µM; in assay [10] it was 4.2 µM. Also, the TGI in [1] came to 37.8 µM; in assay [2], 24.6 µM; in assay [3], 31.5 µM; in assay [4], 30.8 µM; in [5], 38.2 µM; in assay [6] it was 36 µM. Also, the TGI in assay [7] is 34.2 µM; in [8] it was 44.6 µM; in assay [9], 38.8 µM; in [10], 15.5 µM.

For `O=C(CCN1CCCC1)Nc1ccc2c(Nc3ccccc3)c3ccccc3nc2c1`, the GI50 is 1.44 µM in assay [1]; 1.6 µM in assay [2]; 0.651 µM in [3]; 0.429 µM in [4]; 1.52 µM in [5]; 0.243 µM in assay [6]. In addition, the GI50 in assay [7] is 1.06 µM; in [8] it was 1.84 µM; in assay [9], 0.808 µM; in assay [10], 1.12 µM. Besides, the TGI in assay [1] was found to be 2.84 µM; in assay [2], 3.06 µM; in [3], 3.59 µM; in [4], 2.19 µM; in assay [5], 4.4 µM; in [6], 1.51 µM. For the same compound, the TGI in assay [7] worked out at 3.27 µM; in [8], 7.22 µM; in assay [9], 2.38 µM; in [10] it was 2.55 µM.

Take `COc1ccc(/C=C(/C(=O)n2cnnn2)c2cc(OC)c(OC)c(OC)c2)cc1`: the GI50 in assay [1] is 0.614 µM; in assay [2], 7.37 µM; in assay [3], 5.26 µM; in assay [4] it was 4.22 µM; in [5], 5.78 µM; in assay [6], 6.87 µM. The GI50 was 2.37 µM in [7], 3.87 µM in assay [8], 5.41 µM in assay [9] and 3.1 µM in [10]. Also, the TGI in [1] is 3.24 µM; in [2] it was over 100 µM; in assay [3] it was over 100 µM; in [4] it was over 100 µM; in assay [5] it was over 100 µM; in assay [6] it was over 100 µM. In addition, the TGI in assay [7] is 5.94 µM; in assay [8], over 100 µM; in assay [9], over 100 µM; in assay [10] it was over 100 µM.
